Experimental data reported in ChEMBL document CHEMBL3400104, “Discovery of a potent, orally available dual CysLT₁ and CysLT₂ antagonist with dicarboxylic acid” (Bioorg Med Chem, 2015).

Columns and labels:
[1] = Apparent permeability across apical to basolateral or basolateral to apical side in human Caco2 cells at 1 uM after 2 hrs by LC/MS/MS analysis; format: ADME, cell-based; details: Caco-2
[2] = biological target: T1, Cysteinyl leukotriene receptor 2 (Homo sapiens, UniProt Q9NS75); experiment: Antagonist activity at human CysLT2 receptor expressed in HEK293 cells assessed as inhibition of LTD4-inudced intracellular calcium influx preincubated for 30 mins before LTD4 addition by Fura2-AM assay; format: functional, cell-based
T1 sequence (Q9NS75 whole entry): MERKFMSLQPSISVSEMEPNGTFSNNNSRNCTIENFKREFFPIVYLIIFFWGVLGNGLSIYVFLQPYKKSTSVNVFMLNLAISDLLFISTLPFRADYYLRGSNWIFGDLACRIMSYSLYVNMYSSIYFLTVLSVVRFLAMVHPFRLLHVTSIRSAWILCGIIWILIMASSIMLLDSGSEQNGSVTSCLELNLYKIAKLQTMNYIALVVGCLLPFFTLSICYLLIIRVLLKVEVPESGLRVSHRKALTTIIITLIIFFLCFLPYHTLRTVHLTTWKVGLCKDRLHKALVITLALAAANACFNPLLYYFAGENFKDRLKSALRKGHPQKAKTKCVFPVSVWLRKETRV

[3] = biological target: T2, Cysteinyl leukotriene receptor 1 (Homo sapiens, UniProt Q9Y271); experiment: Antagonist activity at human CysLT1 receptor expressed in CHO cells assessed as inhibition of LTD4-inudced intracellular calcium influx preincubated for 30 mins before LTD4 addition by Fura2-AM assay; format: functional, cell-based
T2 sequence (Q9Y271 whole entry): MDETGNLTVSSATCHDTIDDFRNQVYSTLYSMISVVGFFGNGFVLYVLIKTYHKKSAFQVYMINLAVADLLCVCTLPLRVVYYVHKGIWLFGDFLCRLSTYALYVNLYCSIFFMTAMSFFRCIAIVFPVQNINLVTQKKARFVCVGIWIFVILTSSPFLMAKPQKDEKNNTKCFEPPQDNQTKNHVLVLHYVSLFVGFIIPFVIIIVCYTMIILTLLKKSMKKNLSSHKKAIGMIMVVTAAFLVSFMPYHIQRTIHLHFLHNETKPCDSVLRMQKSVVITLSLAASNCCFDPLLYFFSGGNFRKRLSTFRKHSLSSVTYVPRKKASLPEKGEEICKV

[4] = Oral bioavailability in rat at 30 mg/kg; format: ADME, organism-based; details: in vivo
[5] = Half life in rat at 1 mg/kg, iv; format: ADME, organism-based; set-up: dose 1 mg/kg, route intravenous; details: in vivo
[6] = Apparent permeability of the compound at pH 7.4 by PAMPA; format: physicochemical
[7] = Half life in rat at 30 mg/kg, po; format: ADME, organism-based; set-up: dose 30 mg/kg, route oral; details: in vivo
[8] = Volume of distribution at steady state in rat at 1 mg/kg, iv; format: ADME, organism-based; set-up: dose 1 mg/kg, route intravenous; details: in vivo, read-out: Vdss
[9] = Clearance in rat at 1 mg/kg, iv; format: ADME, organism-based; set-up: dose 1 mg/kg, route intravenous; details: in vivo
[10] = AUC in rat at 30 mg/kg, po; format: ADME, organism-based; set-up: dose 30 mg/kg, route oral; details: plasma
[11] = Cmax in rat at 30 mg/kg, po; format: ADME, organism-based; set-up: dose 30 mg/kg, route oral; details: in vivo
[12] = AUCinf in rat at 1 mg/kg, iv; format: ADME, organism-based; set-up: dose 1 mg/kg, route intravenous, time infinity; details: plasma
[13] = Apparent permeability of the compound at pH 6.2 by PAMPA; format: physicochemical
[14] = AUC in rat at 10 mg/kg, po; format: ADME, organism-based; set-up: dose 10 mg/kg, route oral; details: plasma
[15] = Half life in rat at 10 mg/kg, po; format: ADME, organism-based; set-up: dose 10 mg/kg, route oral; details: in vivo
[16] = Cmax in rat at 10 mg/kg, po; format: ADME, organism-based; set-up: dose 10 mg/kg, route oral; details: in vivo
[17] = Oral bioavailability in rat at 10 mg/kg; format: ADME, organism-based; details: in vivo
Cavia porcellus [18] = experiment: In vivo inhibition of CysLT1 receptor in po dosed guinea pig assessed as reduction in LTD4-induced bronchoconstriction; format: functional, organism-based
Cavia porcellus [19] = experiment: In vivo inhibition of CysLT1 receptor in guinea pig assessed as reduction in LTD4-induced bronchoconstriction at 3 mg/kg, po relative to vehicle treated control; format: functional

SMILES	Papp at 2 h, 1 µM [1] [×10⁻⁶ cm/s]	IC50 [2] [nM]	IC50 [3] [nM]	bioavailability [4] [%]	half-life [5] [h]	Papp [6] [×10⁻⁶ cm/s]	half-life [7] [h]	Vd [8] [L/kg]	clearance [9] [mL/min/kg]	AUC [10] [ng·h/mL]	Cmax [11] [ng/mL]	AUC(0-inf) [12] [ng·h/mL]	Papp [13] [×10⁻⁶ cm/s]	AUC [14] [ng·h/mL]	half-life [15] [h]	Cmax [16] [ng/mL]	bioavailability [17] [%]	inhibition (Cavia porcellus [18])	inhibition in vivo at 3 mg/kg (Cavia porcellus [19]) [%]
O=C(O)CCCN1CCOc2c(NC(=O)c3ccc(OCCCCc4ccccc4)cc3)cccc21	0.17	4300	1900																
O=C(O)CCCN1CC(C(=O)O)Oc2c(/C=C/c3ccc(OCCCCc4ccccc4)cc3)cccc21 (stereo unspecified)	1.3	5.7	70	29	5.6	0.1	3.6	0.365	0.77	203000	21000	24000	1.1						
O=C(O)CCCN1CC(c2nnn[nH]2)Oc2c(NC(=O)c3ccc(OCCCCc4ccccc4)cc3)cccc21 (stereo unspecified)	0.11	0.49	0.79	1	4		11	0.342	7.8	700	40	2100							
O=C(O)CCCN1CC(c2nnn[nH]2)Oc2c(CCc3ccc(OCCCCc4ccccc4)cc3)cccc21 (stereo unspecified)	0.52	15	35		3.8			0.999	15			1200		1800	2.9	400	15		
O=C(O)CCCN1CC(C(=O)O)Oc2c(NC(=O)c3ccc(OCCCCc4ccccc4)cc3)cccc21 (stereo unspecified)	0.18						3.2	0.104			210	3500							
O=C(O)CCCN1CC(C(=O)O)Oc2c(CCc3ccc(OCCCCc4ccccc4)cc3)cccc21 (stereo unspecified)	2.8	16	82	79	6		2.5	1.46	4.8	88000	12000	3700							
O=C(O)CCCOc1nc2cccc(/C=C/c3ccc(OCCCCOc4ccccc4)cc3)c2nc1C(=O)O	11	75	490			< 0.1							11						
CS(=O)(=O)NC(=O)C1CN(CCCC(=O)O)c2cccc(NC(=O)c3ccc(OCCCCc4ccccc4)cc3)c2O1 (stereo unspecified)	0.06	16	22																
O=C(O)CCCn1cc(C(=O)O)c(=O)c2c(/C=C/c3ccc(OCCCCOc4ccccc4)cc3)cccc21	13	370	250			12							13						
O=C(O)CCCN1CC(C(=O)O)Oc2c(OCc3ccc(OCCCCc4ccccc4)cc3)cccc21 (stereo unspecified)	0.74		58	20	6		7.4	0.18	2.2	48000	5600	7900							
O=C(O)CCCN1CC(C(=O)NS(=O)(=O)c2ccccc2)Oc2c(NC(=O)c3ccc(OCCCCc4ccccc4)cc3)cccc21 (stereo unspecified)	0.06	5.7	70																
O=C(O)CCCN1CC(c2nnn[nH]2)Oc2c(/C=C/c3ccc(OCCCCc4ccccc4)cc3)cccc21 (stereo unspecified)	0.16	3.4	0.59																
O=C(O)CCCN1CC(C(=O)O)Oc2c(/C=C/c3ccc(OCCCCOc4ccccc4)cc3)cccc21 (stereo unspecified)	7.8	0.31	24			< 0.1							7.8						
O=C(O)CCCn1cc(CC(=O)O)c2c(/C=C/c3ccc(OCCCCOc4ccccc4)cc3)cccc21					7.1			0.208	0.65			28000		324000	4.7	33000	100	Dose-dependent effect	45
O=C(O)CCCN1CC(CO)Oc2c(NC(=O)c3ccc(OCCCCc4ccccc4)cc3)cccc21 (stereo unspecified)	0.17	410	740																
